In DBAASP:
Converted amounts (≈) assume the structure as drawn. “And” between values parts separate entries of the source, which are not always exact repeats. Equal values may be shown once. Values belong to the compound of their own block, whether it stands above or below them.

Columns and labels:
Test in all cases: ≥ marks a high value that may be exact or a test limit, other limits are often not marked, values filed in µg/mL are converted to µM
[1] = tested on: Staphylococcus aureus ATCC 25923
[2] = tested on: Staphylococcus epidermidis T6/19
[3] = tested on: Staphylococcus epidermidis T37/8
[4] = tested on: Acinetobacter baumannii NM109
[5] = tested on: Acinetobacter baumannii NM124
[6] = tested on: Staphylococcus epidermidis RP62A
[7] = tested on: Stenotrophomonas maltophilia U8908
[8] = tested on: Acinetobacter baumannii NM75
[9] = tested on: Escherichia coli ATCC 25726
[10] = tested on: Enterococcus faecalis ATCC 29212
[11] = tested on: Acinetobacter baumannii NM35
[12] = tested on: Stenotrophomonas maltophilia B32/1
[13] = tested on: Staphylococcus epidermidis RP62A/1
[14] = tested on: Staphylococcus aureus 145/08
[15] = tested on: Stenotrophomonas maltophilia B32/4
[16] = tested on: Stenotrophomonas maltophilia B6/2
[17] = tested on: Candida albicans ATCC 90028
[18] = tested on: Acinetobacter baumannii NM8
[19] = tested on: Pseudomonas aeruginosa ATCC 27853
[20] = tested on: Klebsiella pneumoniae ATCC 700603
[21] = tested on: Stenotrophomonas maltophilia B5/5
[22] = tested on: Salmonella enterica subsp. enterica serovar Typhi
[23] = tested on: Staphylococcus epidermidis
Vibrio cholerae = tested on: Vibrio cholerae
[24] = tested on: Staphylococcus aureus ATCC 43300
[25] = tested on: Staphylococcus aureus ATCC 6538
[26] = tested on: Bacillus subtilis ATCC 23857
[27] = tested on: Pseudomonas aeruginosa ATCC 9027
[28] = tested on: Staphylococcus epidermidis ATCC 12228
[29] = tested on: Escherichia coli ATCC 700926
[30] = tested on: Escherichia coli ATCC 25922
[31] = tested on: Staphylococcus aureus USA 300
[32] = tested on: Staphylococcus aureus USA 400
[33] = tested on: Staphylococcus aureus ATCC 6538P
Escherichia coli BL21 = tested on: Escherichia coli BL21
[34] = tested on: Pseudomonas aeruginosa 8600
[35] = tested on: Candida albicans NCTC 3179
[36] = tested on: Streptococcus mutans NCTC 10449
[37] = tested on: Lactobacillus acidophilus NCTC 1723
[38] = tested on: Enterococcus faecalis NCTC 12697
[39] = tested on: Acinetobacter baumannii ATCC 19606
[40] = tested on: Neisseria gonorrhoeae F-62
Candida albicans = tested on: Candida albicans
Escherichia coli = tested on: Escherichia coli
[41] = tested on: Neisseria gonorrhoeae FA-19
Listeria monocytogenes = tested on: Listeria monocytogenes
[42] = tested on: Escherichia coli IFO 12734
[43] = tested on: Staphylococcus aureus IFO 12732
[44] = tested on: Micrococcus luteus ATCC 9341
[45] = tested on: Bacillus subtilis IFO 3513

SMILES: CC(C)C[C@H](NC(=O)[C@H](CO)NC(=O)CNC(=O)[C@H](C)NC(=O)[C@@H](N)CC(N)=O)C(=O)N[C@@H](CC(C)C)C(=O)N[C@@H](CO)C(=O)NCC(=O)N[C@@H](Cc1c[nH]c2ccccc12)C(=O)NCC(=O)O [NAGSLLSGWG]
- MIC [22]: 0.687 µM (≈ 0.66 µg/mL)
- MIC [23]: 0.687 µM (≈ 0.66 µg/mL)
- MIC (Vibrio cholerae): 3 µM (≈ 2.88 µg/mL)

SMILES: CC(C)C[C@H](NC(=O)[C@H](CCCNC(=N)N)NC(=O)CNC(=O)CNC(=O)[C@@H](N)CCCNC(=N)N)C(=O)N[C@H]1CSSC[C@@H](C(=O)N[C@H](C(=O)NCC(=O)N[C@@H](CCCNC(=N)N)C(N)=O)C(C)C)NC(=O)[C@H](C(C)C)NC(=O)[C@@H]2CSSC[C@H](NC(=O)[C@H](Cc3ccc(O)cc3)NC1=O)C(=O)N[C@@H](CCCNC(=N)N)C(=O)N1CCC[C@H]1C(=O)N[C@@H](CCCNC(=N)N)C(=O)N[C@@H](Cc1ccccc1)C(=O)N2 [RGGRLCYCRPRFCVCVGR]
- MIC [40]: 0.666 µM (≈ 1.4 µg/mL)
- MIC (Candida albicans): 7.42 µM (≈ 15.6 µg/mL)
- MIC (Escherichia coli): 1.38 µM (≈ 2.89 µg/mL)
- MIC [41]: 0.761 µM (≈ 1.6 µg/mL)
- MIC (Listeria monocytogenes): 1.19 µM (≈ 2.49 µg/mL)

SMILES: CC[C@H](C)[C@H](N)C(=O)N[C@@H](CC(C)C)C(=O)N1CCC[C@H]1C(=O)N[C@@H](Cc1ccc(O)cc1)C(=O)N[C@@H](CCCCN)C(=O)N[C@@H](Cc1ccc(O)cc1)C(=O)N1CCC[C@H]1C(=O)N[C@@H](Cc1ccc(O)cc1)C(=O)N[C@@H](Cc1ccc(O)cc1)C(=O)N1CCC[C@H]1C(=O)N[C@@H](Cc1ccc(O)cc1)C(=O)N[C@@H](CCCN=C(N)N)C(=O)N[C@@H](CCCN=C(N)N)C(N)=O [ILPYKYPYYPYRR]
- MIC [42]: ≥ 55.8 µM
- MIC [43]: 14 µM (≈ 25 µg/mL)
- MIC [44]: 6.3 µM (≈ 11.3 µg/mL)
- MIC [45]: 14 µM (≈ 25 µg/mL)

Next, values leading:

- MIC [1]: 2.5 µM (≈ 7.49 µg/mL)
- MIC [2]: 1.25 µM (≈ 3.74 µg/mL)
- MIC [3]: 1.25 µM (≈ 3.74 µg/mL)
- MIC [4]: 5 µM (≈ 15 µg/mL)
- MIC [5]: 2.5 µM (≈ 7.49 µg/mL)
- MIC [6]: 1.25 µM (≈ 3.74 µg/mL)
- MIC [7]: 5 µM (≈ 15 µg/mL)
- MIC [8]: 2.5 µM (≈ 7.49 µg/mL)
- MIC [9]: 10 µM and 5 µM
- MIC [10]: 20 µM (≈ 59.9 µg/mL)
- MIC [11]: 5 µM (≈ 15 µg/mL)
- MIC [12]: 2.5 µM (≈ 7.49 µg/mL)
- MIC [13]: 1.25 µM (≈ 3.74 µg/mL)
- MIC [14]: 2.5 µM (≈ 7.49 µg/mL)
- MIC [15]: 1.25 µM (≈ 3.74 µg/mL)
- MIC [16]: 1.25 µM (≈ 3.74 µg/mL)
- MIC [17]: ≥ 80 µM
- MIC [18]: 5 µM (≈ 15 µg/mL)
- MIC [19]: 20 µM (≈ 59.9 µg/mL)
- MIC [20]: 10 µM (≈ 29.9 µg/mL)
- MIC [21]: 2.5 µM (≈ 7.49 µg/mL)
SMILES: CC[C@H](C)[C@H](NC(=O)[C@H](C)NC(=O)[C@@H](NC(=O)[C@H](C)NC(=O)CNC(=O)[C@H](CCCCN)NC(=O)[C@@H](NC(=O)[C@H](C)NC(=O)CNC(=O)[C@H](CCCCN)NC(=O)[C@H](CC(C)C)NC(=O)[C@@H](NC(=O)[C@H](CCCCN)NC(=O)[C@H](CCCCN)NC(=O)[C@H](CC(C)C)NC(=O)[C@@H](NC(=O)[C@H](CC(=O)O)NC(=O)[C@H](CCCCN)NC(=O)[C@@H](NC(=O)[C@H](CCCCN)NC(=O)[C@@H]1CCCN1C(=O)[C@H](CO)NC(=O)[C@H](CC(C)C)NC(=O)[C@H](CCCCN)NC(=O)[C@@H](N)CC(C)C)[C@@H](C)O)[C@@H](C)O)C(C)C)[C@@H](C)CC)[C@@H](C)CC)C(=O)N[C@@H](C)C(=O)N[C@@H](CO)C(=O)N[C@@H](CCSC)C(=O)N[C@@H](C)C(N)=O [LKLSPKTKDTLKKVLKGAIKGAIAIASMA]

- MIC [24]: 125 µM (≈ 205 µg/mL)
- MIC [25]: 128 µM and 62.5 µM
- MIC [26]: 2.4 µM (≈ 3.93 µg/mL)
- MIC [27]: 9.3 µM (≈ 15.2 µg/mL)
- MIC [28]: 3.9 µM (≈ 6.38 µg/mL)
- MIC [29]: 15.6 µM (≈ 25.5 µg/mL)
- MIC [30]: 5.7 µM (≈ 9.33 µg/mL)
- MIC [31]: ≥ 125 µM
- MIC [32]: ≥ 125 µM
- MIC [33]: 7.8 µM (≈ 12.8 µg/mL)
- MIC (Escherichia coli BL21): 15.6 µM (≈ 25.5 µg/mL)
- MIC [19]: 15.6 µM (≈ 25.5 µg/mL)
SMILES: CC[C@H](C)[C@H](NC(=O)[C@H](CCCCN)NC(=O)[C@H](CCCCN)NC(=O)[C@@H](NC(=O)[C@@H](NC(=O)[C@H](CCCCN)NC(=O)[C@H](CCCCN)NC(=O)[C@@H](NC(=O)[C@@H](NC(=O)[C@H](CCCCN)NC(=O)[C@H](CCCCN)NC(=O)[C@@H](NC(=O)[C@@H](NC(=O)CN)[C@@H](C)CC)[C@@H](C)CC)[C@@H](C)CC)[C@@H](C)CC)[C@@H](C)CC)[C@@H](C)CC)C(=O)O [GIIKKIIKKIIKKI]

- MIC [34]: ≥ 94.9 µM
- MIC [35]: 6.01 µM (≈ 8.09 µg/mL)
- MIC [36]: ≥ 127 µM
- MIC [37]: ≥ 54.9 µM
- MIC [38]: ≥ 371 µM
- MIC [39]: > 94.9 µM
SMILES: CSCC[C@H](NC(=O)[C@H](CC(C)C)NC(=O)CNC(=O)[C@H](Cc1ccccc1)NC(=O)[C@H](Cc1ccccc1)NC(=O)[C@H](CCC(N)=O)NC(=O)[C@H](CCC(N)=O)NC(=O)[C@@H]1CCCN1C(=O)[C@H](CCCCN)NC(=O)[C@@H]1CCCN1C(=O)[C@@H](N)CCCN=C(N)N)C(N)=O [RPKPQQFFGLM]
